Measured values from PubChem BioAssay (NCI).
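Cells were grown in 96-well plates and exposed to each compound for 48 hours at five concentrations; endpoints were interpolated linearly between bracketing concentrations, or set to the highest concentration if not reached. GI50 = concentration required for 50% inhibition of growth. The concentration for full growth arrest is given as TGI.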

Experiments:
Test in all cases: NCI-60 cell line screen, 48 h
DLD-1 colon = test system: DLD-1 colon
DMS 114 small cell lung = test system: DMS 114 small cell lung
DMS 273 small cell lung = test system: DMS 273 small cell lung
KM20L2 colon = test system: KM20L2 colon
LXFL 529 NSCLC = test system: LXFL 529 NSCLC
M19-MEL melanoma = test system: M19-MEL melanoma
RPMI-8226 leukemia = test system: RPMI-8226 leukemia
RXF-631 renal = test system: RXF-631 renal
SNB-78 CNS = test system: SNB-78 CNS
XF 498 CNS = test system: XF 498 CNS
MDA-N = test system: MDA-N
HOP-18 NSCLC = test system: HOP-18 NSCLC

Compound: CN(C)c1ccc2c(=O)c3ccccc3oc2n1
- TGI (DLD-1 colon): > 100 µM
- TGI (DMS 114 small cell lung): > 100 µM
- TGI (DMS 273 small cell lung): > 100 µM
- TGI (KM20L2 colon): > 100 µM
- TGI (LXFL 529 NSCLC): > 100 µM
- TGI (M19-MEL melanoma): > 100 µM
- TGI (RPMI-8226 leukemia): > 100 µM
- TGI (RXF-631 renal): > 100 µM
- TGI (SNB-78 CNS): > 100 µM
- TGI (XF 498 CNS): > 100 µM

Compound: Cc1cc2nc(C(C)C(=O)c3ccc(Cl)cc3)c(=O)[nH]c2cc1C (configuration not stated)
- TGI (MDA-N): 40.4 µM
- TGI (RPMI-8226 leukemia): > 100 µM

Compound: CC[C@]12CCCN3CCc4c(n(c5ccccc45)C(=O)C1)[C@@H]32
- TGI (MDA-N): 4.79 µM
- TGI (RPMI-8226 leukemia): > 65.1 µM

Compound: COc1ccc(C2CC(=O)c3c(O)cc(O)cc3O2)cc1O (configuration not stated)
- TGI (DLD-1 colon): > 100 µM
- TGI (DMS 114 small cell lung): > 100 µM
- TGI (DMS 273 small cell lung): > 100 µM
- TGI (KM20L2 colon): > 100 µM
- TGI (LXFL 529 NSCLC): > 100 µM
- TGI (M19-MEL melanoma): > 100 µM
- TGI (RPMI-8226 leukemia): > 100 µM
- TGI (RXF-631 renal): > 100 µM
- TGI (SNB-78 CNS): > 100 µM
- TGI (XF 498 CNS): > 100 µM

Compound: CCOC(=O)c1ccc2[nH]c(-c3ccc(S(=O)(=O)F)cc3)cc(=O)c2c1
- TGI (MDA-N): > 100 µM
- TGI (RPMI-8226 leukemia): > 100 µM

Compound: COc1ccc(-c2cc(-c3cc(Cl)ccc3Cl)nc3n[nH]c(N)c23)cc1
- GI50 (RPMI-8226 leukemia): 22.8 µM
- TGI (RPMI-8226 leukemia): 70.2 µM

Compound: O=C(O)CCNc1ccccc1C(=O)O
- TGI (MDA-N): > 100 µM
- TGI (RPMI-8226 leukemia): > 100 µM

Compound: CC(=O)N[C@@H](Cc1ccc(OP(=O)(O)O)cc1)C(=O)N[C@H]1CCC(=O)N2CCC[C@@H](C(=O)NCc3ccc(Cl)cc3)N2C1=O
- GI50 (RPMI-8226 leukemia): > 25 µM
- TGI (RPMI-8226 leukemia): > 25 µM

Compound: COc1ccc2oc(=O)cc(C(c3ccc[nH]3)c3ccc[nH]3)c2c1
- GI50 (RPMI-8226 leukemia): 0.376 µM
- TGI (RPMI-8226 leukemia): 3.64 µM

Compound: N#Cc1ccccc1NC(=O)/C(=N\N)C(C(=O)c1ccncc1)C1OC(=O)c2ccccc21 (configuration not stated)
- TGI (KM20L2 colon): > 100 µM
- TGI (LXFL 529 NSCLC): > 100 µM
- TGI (M19-MEL melanoma): > 100 µM
- TGI (RPMI-8226 leukemia): > 100 µM
- TGI (XF 498 CNS): > 100 µM

Compound: O=C(O)C/C(=C\c1ccco1)C(=O)O
- TGI (MDA-N): > 100 µM
- TGI (RPMI-8226 leukemia): > 100 µM

Compound: COc1ccc(OC)c(/C=N/NC(=O)Cc2csc3nc(-c4ccc(Br)cc4)cn23)c1
- GI50 (RPMI-8226 leukemia): 10.3 µM
- TGI (RPMI-8226 leukemia): > 100 µM

Compound: FC(F)(F)c1nc(N2CCCC2)ncc1-c1nnnn1-c1ccc(Cl)cc1
- GI50 (RPMI-8226 leukemia): 1.41 µM
- TGI (RPMI-8226 leukemia): 12.8 µM

Compound: Cc1ccc(S(=O)(=O)c2c(N)c3nc4ccccc4n3c3nc4ccccc4nc23)cc1
- TGI (DLD-1 colon): > 100 µM
- TGI (DMS 114 small cell lung): > 100 µM
- TGI (DMS 273 small cell lung): > 100 µM
- TGI (KM20L2 colon): > 100 µM
- TGI (LXFL 529 NSCLC): > 100 µM
- TGI (M19-MEL melanoma): > 100 µM
- TGI (RPMI-8226 leukemia): > 100 µM
- TGI (RXF-631 renal): > 100 µM

Compound: CN(Cc1cnc2nc(N)nc(N)c2n1)c1ccc(C(=O)NC(CCC(=O)O)C(=O)O)cc1C(F)(F)F (configuration not stated)
- TGI (RPMI-8226 leukemia): > 100 µM

Compound: N=C(N)c1ccc(OCc2cccc(COc3ccc(C(=N)N)cc3)c2)cc1
- GI50 (RPMI-8226 leukemia): 3.11 µM
- TGI (RPMI-8226 leukemia): 7.88 µM

Compound: CC12CCC3C(CCC4Cc5[nH]c6ccccc6c5CC43C)C1CCC2O (configuration not stated)
- GI50 (RPMI-8226 leukemia): 1.13 µM
- TGI (RPMI-8226 leukemia): 4.52 µM

Compound: Nc1c(C(=O)c2cccc(CCCN3CCOCC3)c2)cnn1-c1ccc(F)cc1
- GI50 (RPMI-8226 leukemia): > 25 µM
- TGI (RPMI-8226 leukemia): > 25 µM

Compound: CCNC(=O)[C@@H]1CCCN2C(=O)CC[C@H](NC(=O)[C@H](Cc3ccc(OP(=O)(O)O)cc3)NC(C)=O)C(=O)N12
- GI50 (RPMI-8226 leukemia): > 25 µM
- TGI (RPMI-8226 leukemia): > 25 µM

Compound: C[N+](C)(C)CC1CCCC/C1=N\OC(=O)c1ccccc1 (configuration not stated)
- TGI (DLD-1 colon): > 100 µM
- TGI (DMS 114 small cell lung): > 100 µM
- TGI (DMS 273 small cell lung): > 100 µM
- TGI (HOP-18 NSCLC): > 100 µM
- TGI (KM20L2 colon): > 100 µM
- TGI (LXFL 529 NSCLC): > 100 µM
- TGI (M19-MEL melanoma): > 100 µM
- TGI (RPMI-8226 leukemia): > 100 µM
- TGI (RXF-631 renal): > 100 µM
- TGI (SNB-78 CNS): > 100 µM
